Experiments:
[1] = Toxicity in BALB/c mouse assessed as morphological changes in lung at 2 to 4 mg/kg by H and E staining based analysis; format: organism-based; conditions: in vivo, dose 2-4 mg/kg
[2] = test system: A549; test: Induction of apoptosis in human A549 cells assessed as viable cells at 0.04 uM measured after 48 hrs by annexin V and PI staining based flow cytometry analysis (reference value: 93.3%); format: functional; conditions: Homo sapiens, A549, 48 h, read-out: Activity
[3] = test system: A549; test: Induction of apoptosis in human A549 cells assessed as necrotic cells at 0.1 uM measured after 48 hrs by annexin V and PI staining based flow cytometry analysis (reference value: 1.47%); format: functional
[4] = Drug uptake in Sprague-Dawley rat blood at 2 mg/kg measured after 24 hrs by UPLC-3Q analysis; format: ADME, organism-based; conditions: in vivo
[5] = test system: A549; test: Antiproliferative activity against survivin silenced human A549 cells assessed as inhibition of cell growth measured after 48 hrs by MTT assay; format: functional, cell-based; conditions: A549, 48 h
[6] = test system: A549; test: Induction of apoptosis in human A549 cells assessed as late apoptotic cells at 0.25 uM measured after 48 hrs by annexin V and PI staining based flow cytometry analysis (reference value: 4.70%); format: functional
[7] = test system: A549; test: Induction of apoptosis in human A549 cells assessed as necrotic cells at 0.25 uM measured after 48 hrs by annexin V and PI staining based flow cytometry analysis (reference value: 1.47%); format: functional
[8] = test system: 143B; test: Antiproliferative activity against human 143B cells assessed as inhibition of cell growth measured after 48 hrs by MTT assay; format: functional, cell-based; conditions: 143b
[9] = test system: HepG2; test: Antiproliferative activity against human HepG2 cells assessed as inhibition of cell growth measured after 48 hrs by MTT assay; format: functional, cell-based; conditions: hepg2
[10] = test system: A549; test: Induction of apoptosis in human A549 cells assessed as early apoptotic cells at 0.1 uM measured after 48 hrs by annexin V and PI staining based flow cytometry analysis (reference value: 0.71%); format: functional
[11] = Drug distribution in BALB/C nude mouse tumor xenografted with human A549 cells at 2 mg/kg measured after 2 to 6 hrs by UPLC-3Q analysis; format: ADME, organism-based, Neoplasm; conditions: in vivo, time 2-6 hrs
[12] = test system: A549; test: Antitumor activity against human A549 cells xenografted in BALB/c nude mouse assessed as inhibition of tumor growth at 4 mg/kg, sc administered every 2 days for 14 days relative to control; format: functional; parameters: scale not given: the % may be the effect or the level left; conditions: time 14 day
[13] = Toxicity in BALB/c nude mouse assessed as death at 4 mg/kg, sc administered every 2 days for 14 days; format: organism-based; conditions: in vivo, 336 h, time 14 day
[14] = test system: A549; test: Induction of apoptosis in human A549 cells assessed as necrotic cells at 0.04 uM measured after 48 hrs by annexin V and PI staining based flow cytometry analysis (reference value: 1.47%); format: functional
[15] = Toxicity in BALB/c nude mouse assessed as dermatitis at 4 mg/kg, sc administered every 2 days for 14 days; format: organism-based; conditions: in vivo, 336 h, time 14 day
[16] = Toxicity in BALB/c mouse assessed as morphological changes in liver at 2 to 4 mg/kg by H and E staining based analysis; format: organism-based; conditions: in vivo, dose 2-4 mg/kg
[17] = test system: MRC5; test: Antiproliferative activity against human MRC5 cells assessed as inhibition of cell growth measured after 48 hrs by MTT assay; format: toxicity, cell-based; conditions: mrc5
[18] = Toxicity in BALB/c mouse assessed as morphological changes in spleen at 2 to 4 mg/kg by H and E staining based analysis; format: organism-based; conditions: in vivo, dose 2-4 mg/kg
[19] = Toxicity in BALB/c nude mouse assessed as dermatitis at 2 mg/kg, sc administered every 2 days for 14 days; format: organism-based; conditions: in vivo, 336 h, time 14 day
[20] = target: T1, Interleukin enhancer-binding factor 3 (Homo sapiens, UniProt Q12906); test: Binding affinity to ILF3 (unknown origin) assessed as dissociation constant at upto 1 uM by SPR method
T1 sequence (Q12906 whole entry): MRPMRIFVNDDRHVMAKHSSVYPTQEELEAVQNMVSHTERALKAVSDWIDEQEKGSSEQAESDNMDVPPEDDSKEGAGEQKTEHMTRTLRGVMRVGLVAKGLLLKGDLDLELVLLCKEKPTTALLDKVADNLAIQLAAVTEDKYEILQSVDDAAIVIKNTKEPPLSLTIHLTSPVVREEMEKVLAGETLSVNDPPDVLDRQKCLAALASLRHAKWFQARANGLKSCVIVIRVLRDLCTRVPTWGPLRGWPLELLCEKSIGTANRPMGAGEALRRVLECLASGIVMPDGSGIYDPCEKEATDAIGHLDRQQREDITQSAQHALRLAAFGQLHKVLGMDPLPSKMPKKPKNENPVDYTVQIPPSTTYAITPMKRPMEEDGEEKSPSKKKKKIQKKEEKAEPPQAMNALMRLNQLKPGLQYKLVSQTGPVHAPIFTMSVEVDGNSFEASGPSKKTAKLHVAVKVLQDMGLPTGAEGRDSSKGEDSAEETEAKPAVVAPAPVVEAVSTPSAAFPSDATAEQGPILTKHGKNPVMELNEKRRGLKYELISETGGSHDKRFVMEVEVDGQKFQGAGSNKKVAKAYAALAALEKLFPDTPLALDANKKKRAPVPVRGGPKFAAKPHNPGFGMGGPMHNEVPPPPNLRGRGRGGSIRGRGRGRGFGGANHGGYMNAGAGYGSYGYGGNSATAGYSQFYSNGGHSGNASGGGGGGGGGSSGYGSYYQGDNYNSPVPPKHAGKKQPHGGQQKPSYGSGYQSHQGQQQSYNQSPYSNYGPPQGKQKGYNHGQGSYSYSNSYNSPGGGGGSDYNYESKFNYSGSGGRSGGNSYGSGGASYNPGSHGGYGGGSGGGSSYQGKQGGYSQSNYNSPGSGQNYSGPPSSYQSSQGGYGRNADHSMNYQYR

[21] = test system: BXPC-3; test: Antiproliferative activity against human BXPC-3 cells assessed as inhibition of cell growth measured after 48 hrs by MTT assay; format: functional, cell-based; conditions: bxpc-3
[22] = Selectivity index, ratio of IC50 for mouse L929 cells to IC50 for human A549 cells; format: toxicity; conditions: L929 cells and A549 cells, read-out: Ratio IC50
[23] = test system: TE-1; test: cells; conditions: Homo sapiens, TE-1, 48 h
Description: Antiproliferative activity against human TE-1 cells assessed as inhibition of cell growth measured after 48 hrs by MTT assay

[24] = test system: 5637; test: cells; conditions: Homo sapiens, 5637, 48 h
Description: Antiproliferative activity against human 5637 cells assessed as inhibition of cell growth measured after 48 hrs by MTT assay

[25] = test system: ASPC1; test: Antiproliferative activity against human ASPC1 cells assessed as inhibition of cell growth measured after 48 hrs by MTT assay; format: functional, cell-based; conditions: aspc1
[26] = test system: A549; test: Induction of apoptosis in human A549 cells assessed as early apoptotic cells at 0.25 uM measured after 48 hrs by annexin V and PI staining based flow cytometry analysis (reference value: 0.71%); format: functional
[27] = test system: HeLa; test: Antiproliferative activity against human HeLa cells assessed as inhibition of cell growth measured after 48 hrs by MTT assay; format: functional, cell-based; conditions: hela
[28] = Toxicity in BALB/c mouse assessed as morphological changes in heart at 2 to 4 mg/kg by H and E staining based analysis; format: organism-based; conditions: in vivo, dose 2-4 mg/kg
[29] = Drug distribution in BALB/C nude mouse heart xenografted with human A549 cells at 2 mg/kg measured after 2 to 6 hrs by UPLC-3Q analysis; format: ADME, organism-based; conditions: in vivo, time 2-6 hrs

## Cn1c[n+](C)c2c1C(=O)c1cc3ccccc3cc1C2=O.[I-]
[1]
  Activity: Non-Toxic
[2]
  viability at 0.04 µM: 27.8%
[3]
  Activity: 6.62%
[4]
  Drug uptake: Active
[5]
  IC50: 980 nM
[6]
  Activity: 90%
[7]
  Activity: 4.32%
[8]
  IC50: 590 nM
[9]
  IC50: 250 nM
[10]
  Activity: 2.55%
[11]
  Drug uptake: Active
[12]
  Activity: 83.6%
[13]
  Activity: Non-Toxic
[14]
  Activity: 4.74%
[15]
  Activity: Non-Toxic
[16]
  Activity: Non-Toxic
[17]
  IC50: 6900 nM
[18]
  Activity: Non-Toxic
[19]
  Activity: Non-Toxic
[20]
  Kd: 163 nM
[21]
  IC50: 70 nM
[22]
  selectivity ratio: 2390
[23]
  IC50: 50 nM
[24]
  IC50: 180 nM
[25]
  IC50: 250 nM
[26]
  Activity: 2.37%
[27]
  IC50: 1160 nM
[28]
  Activity: Non-Toxic
[29]
  Drug uptake: Not Active

Reference: ChEMBL document CHEMBL5375989, “Pioneering 4,11-Dioxo-4,11-dihydro-1H-anthra[2,3-d]imidazol-3-ium Compounds as Promising Survivin Inhibitors by Targeting ILF3/NF110 for Cancer Therapy” (J Med Chem, 2023)
